In patent US9131694B2, “Insecticidal pyridine compounds” (Dow AgroSciences, LLC, priority 2009, dated 2015):

Columns and labels:
[1] = test system: Green Peach Aphid (Myzus persicae); assay: Insecticidal test for green peach aphid in foliar spray assay on cabbage seedlings; type: in vivo; conditions: 200 ppm foliar spray on infested cabbage seedlings, graded after three days
Procedure: Insecticidal Test for Green Peach Aphid (Myzus persicae) in Foliar Spray Assay Cabbage seedlings grown in 3-inch pots, with 2-3 small (3-5 cm) true leaves, were used as test substrate. The seedlings were infested with 20-50 green peach aphids (wingless adult and nymph) 1-2 days prior to chemical application. Four seedlings were used for each treatment. Selected compounds (2 mg), many of which are described above, were dissolved in 2 ml of acetone:methanol (1:1) solvent, forming stock solutions of 1000 ppm. The stock solutions were diluted 5× with 0.025% Tween 20 in H2O to obtain a solution at 200 ppm. A hand-held Devilbiss aspirator sprayer was used for spraying a solution to both sides of cabbage leaves until runoff. Reference plants (solvent check) were sprayed with the diluent only. Treated plants were held in a holding room for three days at approximately 23° C. and 40% relative humidity prior to grading. Evaluation was conducted by counting the number of live aphids per plant under a microscope. Insecticidal activity was measured by using Abbott's correction formula: Corrected % Control=100*(X−Y)/X • where • X=No. of live aphids on solvent check plants • Y=No. of live aphids on treated plants The results of this test are set forth in the column labelled “Green Peach Aphid” in Table 1 below, in which letter designations represent ranges of percent control as follows: • A=80-100% control • B=60-79% control • C=40-59% control • D=20-39% control • E=0-19% control

[2] = test system: Beet Armyworm (Spodoptera exigua); assay: Insecticidal test for beet armyworm, treated lepidopteran diet; type: in vivo; conditions: 2000 ppm test solution, 50 μL per well on diet (50 g/cm^2 dose), second-instar larvae, observed 2 and 5 days after treatment
Procedure: Insecticidal Test for Beet Armyworm (Spodoptera exigua). To prepare test solution, the test compound was formulated at 2000 ppm solution in 2 mL of 9 acetone: 1 tap water. 50 μL of the test solution ([…] dose for each well) was pipetted upon the surface of 1 mL of lepidopteran diet (Southland Multi-Species Lepidopteran Diet) contained in each of eight wells per insect species (one well=1 replication). A second-instar beet armyworm was placed upon the treated diet in each well (one insect per well) once the solvent had air-dried. Trays containing the treated diet and larvae were covered and then held in a growth chamber at 25° C., 50-55% RH, and 16 hr light:8 hr dark for 5 days. Observation were conducted 2 and 5 days after treatment and infestation to score the number of dead insects per 8-well treatment. The results of this test are set forth in the column labelled “Beet Armyworm” in Table 1 below, in which letter designations represent ranges of percent control as set forth above.

With FC(F)(F)c1cc(N2CCCC2c2ccccn2)nc(Cl)c1Cl (stereo not drawn) [Compound 1, 6-[2-(2-Pyridyl)-1-pyrrolidinyl]-4-trifluoromethyl-2,3-dichloropyridine] the “Green Peach Aphid percent control (Abbott corrected % control)” value [1] was “A (A=80-100% control)” and the “Beet Armyworm percent control” value [2] was “B (B=60-79% control)”.
For N#Cc1c(C(F)(F)F)cc(N2C(c3ccccc3)COC2c2ccccn2)nc1Cl (stereo not drawn) [Compound 18, 2-chloro-6-[4-phenyl-2-(2-pyridyl)oxazolidin-3-yl]-4-(trifluoromethyl)pyridine-3-carbonitrile], the “Green Peach Aphid percent control (Abbott corrected % control)” value [1] was “E (E=0-19% control)” and the “Beet Armyworm percent control” value [2] was “E (E=0-19% control)”.
CC1COC(c2ccccn2)N1c1cc(C(F)(F)F)c(C#N)c(Cl)n1 (stereo not drawn) [Compound 16, 2-chloro-6-[4-methyl-2-(2-pyridyl)oxazolidin-3-yl]-4-(trifluoromethyl)pyridine-3-carbonitrile] was tested, and the “Green Peach Aphid percent control (Abbott corrected % control)” value [1] was “E (E=0-19% control)” and the “Beet Armyworm percent control” value [2] was “E (E=0-19% control)”.
With FC(F)(F)c1c(Cl)cnc(N2CCCC2c2ccccn2)c1Cl (stereo not drawn) the “Green Peach Aphid percent control (Abbott corrected % control)” value [1] was “E (E=0-19% control)” and the “Beet Armyworm percent control” value [2] was “B (B=60-79% control)”.
FC(F)(F)c1cc(N2CCCC2c2ccccn2)nc(Cl)c1Br (stereo not drawn) was tested, and the “Green Peach Aphid percent control (Abbott corrected % control)” value [1] was “D (D=20-39% control)” and the “Beet Armyworm percent control” value [2] was “E (E=0-19% control)”.
For FC(F)(F)c1cc(-n2c(-c3ccccn3)nc3ccccc32)nc(Cl)c1Cl, the “Green Peach Aphid percent control (Abbott corrected % control)” value [1] was “D (D=20-39% control)” and the “Beet Armyworm percent control” value [2] was “D (D=20-39% control)”.
FC(F)(F)c1cc(N2CCCC2c2ccccn2)ncc1Cl (stereo not drawn) was tested, and the “Green Peach Aphid percent control (Abbott corrected % control)” value [1] was “E (E=0-19% control)” and the “Beet Armyworm percent control” value [2] was “D (D=20-39% control)”.
In the case of FC(F)(F)c1cc(N2CCCCC2c2ccccn2)nc(Cl)c1Cl (stereo not drawn) [Compound 6], the “Green Peach Aphid percent control (Abbott corrected % control)” value [1] is reported as “D (D=20-39% control)” and the “Beet Armyworm percent control” value [2] is reported as “A (A=80-100% control)”.
In the case of CCC1CN(c2cc(C(F)(F)F)c(C#N)c(Cl)n2)C(c2ccccn2)O1 (stereo not drawn) [Compound 19, 2-Chloro-6-[5-ethyl-2-(2-pyridyl)oxazolidin-3-yl]-4-(trifluoromethyl)pyridine-3-carbonitrile], the “Green Peach Aphid percent control (Abbott corrected % control)” value [1] is reported as “C (C=40-59% control)” and the “Beet Armyworm percent control” value [2] is reported as “C (C=40-59% control)”.
For C[Si](C)(C)c1c(C(F)(F)F)cc(N2CCCC2c2ccccn2)nc1Cl (stereo not drawn) [Compound 10], the “Green Peach Aphid percent control (Abbott corrected % control)” value [1] was “E (E=0-19% control)” and the “Beet Armyworm percent control” value [2] was “E (E=0-19% control)”.
With CC(C)C1COC(c2ccccn2)N1c1cc(C(F)(F)F)c(C#N)c(Cl)n1 (stereo not drawn) [Compound 12, 2-chloro-6-[4-isopropyl-2-(2-pyridyl)oxazolidin-3-yl]-4-(trifluoromethyl)pyridine-3-carbonitrile] the “Green Peach Aphid percent control (Abbott corrected % control)” value [1] was “D (D=20-39% control)” and the “Beet Armyworm percent control” value [2] was “E (E=0-19% control)”.
In the case of FC(F)(F)c1cc(Cl)nc(N2CCCC2c2ccccn2)c1Cl (stereo not drawn) [Compound 2, 6-[2-(2-pyridyl)-1-pyrrolidinyl]-4-trifluoromethyl-2,5-dichloropyridine], the “Green Peach Aphid percent control (Abbott corrected % control)” value [1] is reported as “C (C=40-59% control)” and the “Beet Armyworm percent control” value [2] is reported as “B (B=60-79% control)”.
